Data taken from the supplement of paper PMC11451515.

Experiments:
Conditions in all cases: 48 h
NOMO1 [1] = experiment: cell viability relative to DMSO control; higher = less cytotoxic
In short: (§1)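 Before seeding, each leukemia line was adapted for at least four passages in each medium. NOMO1 or SEM cells (500 cells/well) and P12-Ichikawa cells (1000 cells/well) went into 1536-well plates at 5 μl, then received library compounds in DMSO by pin dosing across 11 threefold concentrations, 47 μM to 0.79 nM. Readout was CellTiter-Glo One luminescence after 48 h at 37°C, and viability is given as a per-plate percentage of DMSO wells, with cell-free wells as background.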

P12-Ichikawa [2] = experiment: as above
In short: as §1

SEM cells [3] = experiment: as above
In short: as §1

NOMO1 [4] = experiment: AUC of viability dose-response curve (% viability x log10 dose units); higher = less sensitive
In short: (§2)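 In 1536-well plates, leukemia cells adapted to each medium (500 or 1000 cells/well) were exposed for 48 h at 37°C to library compounds in DMSO across 11 threefold doses, 47 μM down to 0.79 nM. Viability was read by CellTiter-Glo One luminescence and normalised per plate to DMSO and cell-free wells. A four-parameter log-logistic fit over log10 doses was integrated by trapezoidal rule. This yielded the area under the curve, with over-full-viability curves scaled and quality-control failures dropped.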

P12-Ichikawa [5] = experiment: as above
In short: as §2

SEM cells [6] = experiment: as above
In short: as §2

c1ccc(-c2nn3c(c2-c2ccnc4cc(OCCN5CCOCC5)ccc24)CCC3)nc1
cell viability [%]
Conditions | NOMO1 [1] | P12-Ichikawa [2] | SEM cells [3]
HPLM + 10% dialyzed FBS, 0.000781 µM | 122 | 120 | 77.4
HPLM + 10% dialyzed FBS, 0.00234 µM | 126 | 114 | 106
HPLM + 10% dialyzed FBS, 0.00702 µM | 113 | 111 | 121
HPLM + 10% dialyzed FBS, 0.0211 µM | 129 | 119 | 126
HPLM + 10% dialyzed FBS, 0.0632 µM | 133 | 112 | 126
HPLM + 10% dialyzed FBS, 0.19 µM | 119 | 112 | 129
HPLM + 10% dialyzed FBS, 0.569 µM | 124 | 97 | 115
HPLM + 10% dialyzed FBS, 1.71 µM | 108 | 109 | 128
HPLM + 10% dialyzed FBS, 5.12 µM | 117 | 103 | 145
HPLM + 10% dialyzed FBS, 15.4 µM | 96.1 | 94.9 | 127
HPLM + 10% dialyzed FBS, 46.1 µM | 70.6 | 84.5 | 110
RPMI 5 mM glucose + 10% FBS, 0.000781 µM | 86 | 112 | 102
RPMI 5 mM glucose + 10% FBS, 0.00234 µM | 99.6 | 117 | 125
RPMI 5 mM glucose + 10% FBS, 0.00702 µM | 107 | 123 | 132
RPMI 5 mM glucose + 10% FBS, 0.0211 µM | 105 | 115 | 125
RPMI 5 mM glucose + 10% FBS, 0.0632 µM | 111 | 112 | 143
RPMI 5 mM glucose + 10% FBS, 0.19 µM | 108 | 96.2 | 134
RPMI 5 mM glucose + 10% FBS, 0.569 µM | 108 | 89.8 | 122
RPMI 5 mM glucose + 10% FBS, 1.71 µM | 99.2 | 106 | 138
RPMI 5 mM glucose + 10% FBS, 5.12 µM | 97.8 | 119 | 144
RPMI 5 mM glucose + 10% FBS, 15.4 µM | 91.3 | 73 | 123
RPMI 5 mM glucose + 10% FBS, 46.1 µM | 91.7 | 74.6 | 91.1
RPMI 5 mM glucose + 10% dialyzed FBS, 0.000781 µM | 66.2 | 110 | 68.3
RPMI 5 mM glucose + 10% dialyzed FBS, 0.00234 µM | 116 | 120 | 122
RPMI 5 mM glucose + 10% dialyzed FBS, 0.00702 µM | 102 | 122 | 137
RPMI 5 mM glucose + 10% dialyzed FBS, 0.0211 µM | 108 | 119 | 132
RPMI 5 mM glucose + 10% dialyzed FBS, 0.0632 µM | 106 | 112 | 135
RPMI 5 mM glucose + 10% dialyzed FBS, 0.19 µM | 108 | 113 | 127
RPMI 5 mM glucose + 10% dialyzed FBS, 0.569 µM | 109 | 112 | 125
RPMI 5 mM glucose + 10% dialyzed FBS, 1.71 µM | 101 | 108 | 131
RPMI 5 mM glucose + 10% dialyzed FBS, 5.12 µM | 98.5 | 102 | 117
RPMI 5 mM glucose + 10% dialyzed FBS, 15.4 µM | 92.8 | 99.3 | 129
RPMI 5 mM glucose + 10% dialyzed FBS, 46.1 µM | 83.4 | 84.8 | 82.2

AUC of viability dose-response curve
Conditions | NOMO1 [4] | P12-Ichikawa [5] | SEM cells [6]
HPLM + 10% dialyzed FBS | 450 | 438 | 458
RPMI 5 mM glucose + 10% FBS | 467 | 420 | 468
RPMI 5 mM glucose + 10% dialyzed FBS | 471 | 448 | 472

CNC(=O)c1c(F)cccc1Nc1nc(Nc2cc3c(cc2OC)CCN3C(=O)CN(C)C)nc2[nH]ccc12
cell viability [%]
Conditions | NOMO1 [1] | P12-Ichikawa [2] | SEM cells [3]
HPLM + 10% dialyzed FBS, 0.000781 µM | 89.3 | 91.4 | 84.8
HPLM + 10% dialyzed FBS, 0.00234 µM | 118 | 97 | 92.2
HPLM + 10% dialyzed FBS, 0.00702 µM | 99.9 | 110 | 94.8
HPLM + 10% dialyzed FBS, 0.0211 µM | 122 | 110 | 100
HPLM + 10% dialyzed FBS, 0.0632 µM | 111 | 111 | 83.5
HPLM + 10% dialyzed FBS, 0.19 µM | 88.7 | 109 | 58.3
HPLM + 10% dialyzed FBS, 0.569 µM | 87.2 | 112 | 40.5
HPLM + 10% dialyzed FBS, 1.71 µM | 76.5 | 108 | 31.9
HPLM + 10% dialyzed FBS, 5.12 µM | 58.8 | 81.5 | 22
HPLM + 10% dialyzed FBS, 15.4 µM | 62 | 87.4 | 3.15
HPLM + 10% dialyzed FBS, 46.1 µM | 6.14 | 51 | 1.16
RPMI 5 mM glucose + 10% FBS, 0.000781 µM | 110 | 112 | 90.3
RPMI 5 mM glucose + 10% FBS, 0.00234 µM | 118 | 113 | 90.5
RPMI 5 mM glucose + 10% FBS, 0.00702 µM | 128 | 105 | 83.2
RPMI 5 mM glucose + 10% FBS, 0.0211 µM | 106 | 123 | 97.9
RPMI 5 mM glucose + 10% FBS, 0.0632 µM | 112 | 114 | 88.7
RPMI 5 mM glucose + 10% FBS, 0.19 µM | 117 | 122 | 51
RPMI 5 mM glucose + 10% FBS, 0.569 µM | 115 | 120 | 34.8
RPMI 5 mM glucose + 10% FBS, 1.71 µM | 113 | 110 | 27.3
RPMI 5 mM glucose + 10% FBS, 5.12 µM | 116 | 113 | 13.5
RPMI 5 mM glucose + 10% FBS, 15.4 µM | 117 | 113 | 1.01
RPMI 5 mM glucose + 10% FBS, 46.1 µM | 27.7 | 51.3 | 0.384
RPMI 5 mM glucose + 10% dialyzed FBS, 0.000781 µM | 107 | 110 | 93.6
RPMI 5 mM glucose + 10% dialyzed FBS, 0.00234 µM | 111 | 117 | 96.8
RPMI 5 mM glucose + 10% dialyzed FBS, 0.00702 µM | 105 | 120 | 93.6
RPMI 5 mM glucose + 10% dialyzed FBS, 0.0211 µM | 126 | 119 | 105
RPMI 5 mM glucose + 10% dialyzed FBS, 0.0632 µM | 117 | 129 | 94.7
RPMI 5 mM glucose + 10% dialyzed FBS, 0.19 µM | 112 | 122 | 58.4
RPMI 5 mM glucose + 10% dialyzed FBS, 0.569 µM | 108 | 121 | 32.8
RPMI 5 mM glucose + 10% dialyzed FBS, 1.71 µM | 103 | 118 | 30.2
RPMI 5 mM glucose + 10% dialyzed FBS, 5.12 µM | 99.2 | 110 | 13.4
RPMI 5 mM glucose + 10% dialyzed FBS, 15.4 µM | 102 | 103 | 2.8
RPMI 5 mM glucose + 10% dialyzed FBS, 46.1 µM | 23.6 | 43.6 | 0.739

AUC of viability dose-response curve
Conditions | NOMO1 [4] | P12-Ichikawa [5] | SEM cells [6]
HPLM + 10% dialyzed FBS | 384 | 446 | 269
RPMI 5 mM glucose + 10% FBS | 459 | 463 | 253
RPMI 5 mM glucose + 10% dialyzed FBS | 454 | 454 | 272

CCOc1ccccc1OCCNC(C)Cc1ccc(OC)c([S+](N)(=O)[O-])c1 (centres undefined)
cell viability [%]
Conditions | NOMO1 [1] | P12-Ichikawa [2] | SEM cells [3]
HPLM + 10% dialyzed FBS, 0.000781 µM | 103 | 88.4 | 87.1
HPLM + 10% dialyzed FBS, 0.00234 µM | 105 | 104 | 82.9
HPLM + 10% dialyzed FBS, 0.00702 µM | 96.8 | 113 | 101
HPLM + 10% dialyzed FBS, 0.0211 µM | 121 | 109 | 103
HPLM + 10% dialyzed FBS, 0.0632 µM | 129 | 103 | 116
HPLM + 10% dialyzed FBS, 0.19 µM | 119 | 111 | 101
HPLM + 10% dialyzed FBS, 0.569 µM | 120 | 114 | 125
HPLM + 10% dialyzed FBS, 1.71 µM | 114 | 105 | 103
HPLM + 10% dialyzed FBS, 5.12 µM | 109 | 104 | 119
HPLM + 10% dialyzed FBS, 15.4 µM | 115 | 108 | 90.9
HPLM + 10% dialyzed FBS, 46.1 µM | 102 | 107 | 85.8
RPMI 5 mM glucose + 10% FBS, 0.000781 µM | 98.8 | 104 | 93.4
RPMI 5 mM glucose + 10% FBS, 0.00234 µM | 110 | 111 | 85.9
RPMI 5 mM glucose + 10% FBS, 0.00702 µM | 115 | 111 | 101
RPMI 5 mM glucose + 10% FBS, 0.0211 µM | 117 | 110 | 118
RPMI 5 mM glucose + 10% FBS, 0.0632 µM | 105 | 114 | 104
RPMI 5 mM glucose + 10% FBS, 0.19 µM | 112 | 106 | 106
RPMI 5 mM glucose + 10% FBS, 0.569 µM | 102 | 114 | 115
RPMI 5 mM glucose + 10% FBS, 1.71 µM | 101 | 114 | 114
RPMI 5 mM glucose + 10% FBS, 5.12 µM | 109 | 117 | 107
RPMI 5 mM glucose + 10% FBS, 15.4 µM | 102 | 117 | 97.6
RPMI 5 mM glucose + 10% FBS, 46.1 µM | 101 | 114 | 105
RPMI 5 mM glucose + 10% dialyzed FBS, 0.000781 µM | 90.1 | 82.8 | 112
RPMI 5 mM glucose + 10% dialyzed FBS, 0.00234 µM | 108 | 103 | 88.9
RPMI 5 mM glucose + 10% dialyzed FBS, 0.00702 µM | 110 | 101 | 115
RPMI 5 mM glucose + 10% dialyzed FBS, 0.0211 µM | 112 | 104 | 126
RPMI 5 mM glucose + 10% dialyzed FBS, 0.0632 µM | 111 | 103 | 115
RPMI 5 mM glucose + 10% dialyzed FBS, 0.19 µM | 108 | 95.8 | 109
RPMI 5 mM glucose + 10% dialyzed FBS, 0.569 µM | 109 | 103 | 130
RPMI 5 mM glucose + 10% dialyzed FBS, 1.71 µM | 101 | 112 | 129
RPMI 5 mM glucose + 10% dialyzed FBS, 5.12 µM | 117 | 110 | 108
RPMI 5 mM glucose + 10% dialyzed FBS, 15.4 µM | 104 | 109 | 127
RPMI 5 mM glucose + 10% dialyzed FBS, 46.1 µM | 105 | 102 | 114

AUC of viability dose-response curve
Conditions | NOMO1 [4] | P12-Ichikawa [5] | SEM cells [6]
HPLM + 10% dialyzed FBS | 468 | 471 | 459
RPMI 5 mM glucose + 10% FBS | 461 | 462 | 462
RPMI 5 mM glucose + 10% dialyzed FBS | 466 | 471 | 464
